# Laboratory results: US20260053811A1, “METHODS OF TREATING HYPERTENSION IN OBESE SUBJECTS” (Mineralys Therapeutics, Inc., priority 2022, published 2026)
# Test system: hypertensive subjects
# Assay: Seated automated office blood pressure (AOBP) in randomized, placebo-controlled, dose-ranging study
# Format: in vivo, human
# Details: Part 1, 12.5 mg QD
# Description: A randomized, double-blinded, placebo-controlled, dose-ranging, multicenter study was conducted to evaluate the effect of orally administered Compound A HBr on blood pressure for the treatment of hypertension in male and female subjects ≥18 years of age.
# The study consists of two parts. For enrollment into Part 1 of the study, a subject's value of plasma renin activity (PRA) must be ≤1 ng/mL/h based on morning measurement. If the value of PRA >1 ng/mL/h based on morning measurement, then subjects may be eligible to enter Part 2 of the study.
# For Part 1, 163 enrolled subjects ≥18 years of age were randomized into 6 equal treatment groups (1:1:1:1:1:1) to 12.5 mg BID, 25 mg BID, 12.5 mg QD, 50 mg QD, 100 mg QD, or placebo. After a review of interim clinical data, the 2 lowest dose levels (12.5 mg QD and 12.5 mg BID) were stopped for future randomization due to a lack of consistent meaningful reduction of blood pressure, but the patients randomized to that point remained in the study through completion. Thus, after the review of interim clinical data, subjects were randomized into 4 equal treatment groups (1:1:1:1) to 25 mg BID, 50 mg QD, 100 mg QD, or placebo.
# For Part 2, 36 enrolled subjects ≥18 years of age were randomized (5:1) to either 100 mg QD Compound A HBr or placebo such that the Compound A HBr treatment group consisted of approximately 30 subjects and the placebo treatment group will consist of approximately 6 subjects.
# Subjects orally administered the assigned study drug (Compound A HBr or placebo) according to the assigned dosing regimen for 8 weeks beginning on Study Day 1. All subjects in Part 1 (regardless of dosing group) received BID dosing to preserve the integrity of the blind; active drug is administered as the morning dose for all QD dose groups. Subjects returned to the research facility or were seen by the clinical investigator or approved home health care professional at the end of Study Weeks 1, 2, 3, 4, 5, 6, 7, and 8 (±2 days) for protocol-defined efficacy and safety assessments and procedures, assessment of adverse events (AEs), and confirmation of compliance with study drug usage. Subjects also completed a telephone visit and blood pressure (BP) check at home approximately 3 days post last dose of study drug. Subjects attended up to 14 full clinic visits, including a pre-Screening visit, a Screening/start of Placebo Run-in visit, a second visit during Placebo Run-in, a clinic visit to initiate the ABPM procedure, a Randomization visit, 8 weekly visits during double-blind treatment, and an end-of-study visit scheduled 4 weeks after the last study treatment for final efficacy and safety assessments.
# An automated oscillometric sphygmomanometer device was used to measure the subjects' systolic and diastolic blood pressure in office after approximately 5 minutes of rest in the seated position.
# The primary endpoint is the change in office-measured (mean of last 2 of 5 unattended measurements using an automated oscillometric sphygmomanometer device after approximately 5 minutes of rest in the seated position) systolic blood pressure (SBP) from baseline to the end of Study Week 8.
# Secondary endpoints of this study were: • (a) Change in 24-hour ambulatory blood pressure monitoring (ABPM) parameters (systolic and diastolic) from baseline to the end of Study Week 7. • (b) Change in office-measured SBP from baseline to the end of Study Weeks 1, 2, 3, 4, 5, 6, and 7. • (c) Change in office-measured diastolic blood pressure (DBP) from baseline to the end of Study Weeks 1, 2, 3, 4, 5, 6, 7, and 8. • (d) Proportion of subjects who achieve office-measured BP of ≤130/80 mm Hg by the end of Study Week 8.
structure (smiles),measurement,setting,value
CC(=O)N[C@H]1CC[C@H](NC(=O)CN2CCN(c3nncc(-c4ccc(C)cc4)n3)CC2)CC1 [Compound A HBr],Mean (SD) Automated Office-Measured Systolic Blood Pressure at Wk 8,Age 65-79 yr,135.63 (15.23) mmHg
same,Mean (SD) Change from Baseline at Week 8 in Automated Office-Measured Diastolic Blood Pressure,Age 65-79 yr,−5.06 (7.49) mmHg
same,Mean (SD) Change from Baseline at Week 8 in Automated Office-Measured Systolic Blood Pressure,Age 65-79 yr,−8.50 (14.04) mmHg
same,Mean (SD) Automated Office-Measured Diastolic Blood Pressure at Wk 8,Age <65 yr,82.63 (20.67) mmHg
same,Mean (SD) Automated Office-Measured Systolic Blood Pressure at Wk 8,Age <65 yr,144.88 (25.16) mmHg
same,Mean (SD) Change from Baseline at Week 8 in Automated Office-Measured Diastolic Blood Pressure,Age <65 yr,−2.19 (9.98) mmHg
same,Mean (SD) Change from Baseline at Week 8 in Automated Office-Measured Systolic Blood Pressure,Age <65 yr,−5.75 (22.93) mmHg
same,Mean (SD) Automated Office-Measured Diastolic Blood Pressure at Wk 8,Age ≥80 yr,93.50 (37.48) mmHg
same,Mean (SD) Automated Office-Measured Systolic Blood Pressure at Wk 8,Age ≥80 yr,145.00 (42.43) mmHg
same,Mean (SD) Change from Baseline at Week 8 in Automated Office-Measured Diastolic Blood Pressure,Age ≥80 yr,13.00 (37.48) mmHg
same,Mean (SD) Change from Baseline at Week 8 in Automated Office-Measured Systolic Blood Pressure,Age ≥80 yr,−4.75 (39.95) mmHg
same,Mean (SD) Automated Office-Measured Diastolic Blood Pressure at Wk 8,BMI 25−30 kg/m^2,76.00 (6.22) mmHg
same,Mean (SD) Change from Baseline at Week 8 in Automated Office-Measured Diastolic Blood Pressure,BMI 25−30 kg/m^2,−4.64 (7.81) mmHg
same,Mean (SD) Automated Office-Measured Diastolic Blood Pressure at Wk 8,BMI <25 kg/m^2,73.00 (NE) mmHg
same,Mean (SD) Change from Baseline at Week 8 in Automated Office-Measured Diastolic Blood Pressure,BMI <25 kg/m^2,−1.50 (NE) mmHg
same,Mean (SD) Automated Office-Measured Diastolic Blood Pressure at Wk 8,BMI >30 kg/m^2,86.10 (21.92) mmHg
same,Mean (SD) Change from Baseline at Week 8 in Automated Office-Measured Diastolic Blood Pressure,BMI >30 kg/m^2,0.20 (16.85) mmHg
same,Mean (SD) Automated Office-Measured Systolic Blood Pressure at Wk 8,BMI at baseline 25-30 kg/m^2,134.14 (18.96) mmHg
same,Mean (SD) Change from Baseline at Week 8 in Automated Office-Measured Systolic Blood Pressure,BMI at baseline 25-30 kg/m^2,−7.71 (19.07) mmHg
same,Mean (SD) Automated Office-Measured Systolic Blood Pressure at Wk 8,BMI at baseline <25 kg/m^2,137.00 (NE) mmHg
same,Mean (SD) Change from Baseline at Week 8 in Automated Office-Measured Systolic Blood Pressure,BMI at baseline <25 kg/m^2,−11.50 (NE) mmHg
same,Mean (SD) Automated Office-Measured Systolic Blood Pressure at Wk 8,BMI at baseline >30 kg/m^2,145.80 (24.73) mmHg
same,Mean (SD) Change from Baseline at Week 8 in Automated Office-Measured Systolic Blood Pressure,BMI at baseline >30 kg/m^2,−5.80 (22.31) mmHg
same,Mean (SD) Automated Office-Measured Diastolic Blood Pressure at Wk 8,Race Black or AA,85.00 (19.41) mmHg
same,Mean (SD) Automated Office-Measured Systolic Blood Pressure at Wk 8,Race Black or AA,147.50 (22.06) mmHg
same,Mean (SD) Change from Baseline at Week 8 in Automated Office-Measured Diastolic Blood Pressure,Race Black or AA,−0.69 (7.56) mmHg
same,Mean (SD) Change from Baseline at Week 8 in Automated Office-Measured Systolic Blood Pressure,Race Black or AA,−1.44 (16.04) mmHg
same,Mean (SD) Automated Office-Measured Diastolic Blood Pressure at Wk 8,Race Other,78.60 (15.76) mmHg
same,Mean (SD) Automated Office-Measured Systolic Blood Pressure at Wk 8,Race Other,135.40 (21.55) mmHg
same,Mean (SD) Change from Baseline at Week 8 in Automated Office-Measured Diastolic Blood Pressure,Race Other,−2.65 (17.00) mmHg
same,Mean (SD) Change from Baseline at Week 8 in Automated Office-Measured Systolic Blood Pressure,Race Other,−11.20 (22.29) mmHg
same,Mean (SD) Automated Office-Measured Diastolic Blood Pressure at Wk 8,Seated SBP Tertile High,84.22 (23.90) mmHg
same,Mean (SD) Change from Baseline at Week 8 in Automated Office-Measured Diastolic Blood Pressure,Seated SBP Tertile High,−1.06 (18.28) mmHg
same,Mean (SD) Automated Office-Measured Diastolic Blood Pressure at Wk 8,Seated SBP Tertile Low,78.50 (7.48) mmHg
same,Mean (SD) Change from Baseline at Week 8 in Automated Office-Measured Diastolic Blood Pressure,Seated SBP Tertile Low,−4.17 (6.69) mmHg
same,Mean (SD) Automated Office-Measured Diastolic Blood Pressure at Wk 8,Seated SBP Tertile Middle,79.00 (5.57) mmHg
same,Mean (SD) Change from Baseline at Week 8 in Automated Office-Measured Diastolic Blood Pressure,Seated SBP Tertile Middle,0.83 (5.62) mmHg
same,Mean (SD) Automated Office-Measured Diastolic Blood Pressure at Wk 8,Sex Female,75.11 (8.40) mmHg
same,Mean (SD) Automated Office-Measured Systolic Blood Pressure at Wk 8,Sex Female,136.00 (17.23) mmHg
same,Mean (SD) Change from Baseline at Week 8 in Automated Office-Measured Diastolic Blood Pressure,Sex Female,−4.83 (8.08) mmHg
same,Mean (SD) Change from Baseline at Week 8 in Automated Office-Measured Systolic Blood Pressure,Sex Female,−9.22 (10.54) mmHg
same,Mean (SD) Automated Office-Measured Diastolic Blood Pressure at Wk 8,Sex Male,87.78 (21.70) mmHg
same,Mean (SD) Automated Office-Measured Systolic Blood Pressure at Wk 8,Sex Male,145.56 (26.10) mmHg
same,Mean (SD) Change from Baseline at Week 8 in Automated Office-Measured Diastolic Blood Pressure,Sex Male,1.28 (17.06) mmHg
same,Mean (SD) Automated Office-Measured Systolic Blood Pressure at Wk 8,Systolic Blood Pressure Tertile at Baseline High,146.33 (26.41) mmHg
